The values below come from US9814672B2, “Echogenic vehicle for clinical delivery of plasminogen activator and other fibrin-binding therapeutics to thrombi” (priority 2007, dated 2017).

For assay [1], the system named is whole porcine blood clots. Put plainly: In vitro thrombolysis, percent clot mass loss. The conditions noted are these: 1 MHz CW, 2 W/cm^2, 2 min vs. no ultrasound. The method, then:
Whole porcine blood clots were used to evaluate thrombolysis. Blood was obtained from non-heparinized Yucatan miniswine. The miniswine were 6-8 weeks old and weighed 28.5±6.5 lb. Baseline blood analysis data, including complete blood count, prothrombin time, activated partial thromboplastin time, D-dimer, and fibrinogen were obtained to ensure normal clotting parameters. Whole blood clots were made by aliquoting 1.5 ml fresh porcine blood into 1.3-cm inner diameter vacutainer tubes; the tubes were incubated in a 37° C. water bath for 3 h. The clots were then stored at 4° C. until use, which ensured complete clot maturation and retraction. This type of clot is fairly similar to physiologic venous clots. Most miniswine used in this study were slightly anemic (hematocrit of 27.8±3.0%). Only donors with values of <250 ng/ml for the D-dimer test, <15 s for prothrombin time, <18 s for activated partial thromboplastin time, and <300 mg/dl fibrinogen concentration were considered acceptable. The resulting clots were dark red, cylindrical, and weighed 0.47±0.11 g. All unused clots were discarded after 2 weeks.
Whole porcine blood clots were blotted gently and weighed using an analytical balance. […]
Porcine clots were treated with 1 MHz continuous wave (CW) ultrasound with an intensity of 2 W/cm^2, for 2 min (Sonitron 1000; Rich-Mar). The calculated peak negative acoustic pressure output was 0.12 MPa. […]

The target of assay [2] is T1, fibrin (Homo sapiens, UniProt P02671+P02675+P02679).
T1 construct: were incubated on replicate fibrin pads, prepared in microplate wells; purchased Calbiochem (EMD Biosciences, Inc., La Jolla, Calif.)
T1 sequence (P02671 36-629 limits assumed): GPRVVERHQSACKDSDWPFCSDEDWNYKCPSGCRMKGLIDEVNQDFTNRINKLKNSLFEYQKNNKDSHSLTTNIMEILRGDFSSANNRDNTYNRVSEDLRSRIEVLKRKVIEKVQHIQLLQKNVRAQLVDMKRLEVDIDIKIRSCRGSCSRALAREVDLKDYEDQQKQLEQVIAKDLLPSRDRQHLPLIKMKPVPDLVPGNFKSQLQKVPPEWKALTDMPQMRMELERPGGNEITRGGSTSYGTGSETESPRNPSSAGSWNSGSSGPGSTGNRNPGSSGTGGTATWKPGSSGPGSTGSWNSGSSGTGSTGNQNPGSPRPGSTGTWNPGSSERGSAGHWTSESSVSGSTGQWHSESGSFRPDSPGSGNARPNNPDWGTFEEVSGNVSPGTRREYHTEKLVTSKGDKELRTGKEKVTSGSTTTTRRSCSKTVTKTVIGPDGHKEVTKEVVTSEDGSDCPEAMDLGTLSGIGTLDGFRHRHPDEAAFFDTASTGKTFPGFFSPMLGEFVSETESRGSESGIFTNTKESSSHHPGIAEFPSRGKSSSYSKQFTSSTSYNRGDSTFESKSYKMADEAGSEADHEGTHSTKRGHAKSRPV
T1 sequence (P02675 45-491 limits assumed): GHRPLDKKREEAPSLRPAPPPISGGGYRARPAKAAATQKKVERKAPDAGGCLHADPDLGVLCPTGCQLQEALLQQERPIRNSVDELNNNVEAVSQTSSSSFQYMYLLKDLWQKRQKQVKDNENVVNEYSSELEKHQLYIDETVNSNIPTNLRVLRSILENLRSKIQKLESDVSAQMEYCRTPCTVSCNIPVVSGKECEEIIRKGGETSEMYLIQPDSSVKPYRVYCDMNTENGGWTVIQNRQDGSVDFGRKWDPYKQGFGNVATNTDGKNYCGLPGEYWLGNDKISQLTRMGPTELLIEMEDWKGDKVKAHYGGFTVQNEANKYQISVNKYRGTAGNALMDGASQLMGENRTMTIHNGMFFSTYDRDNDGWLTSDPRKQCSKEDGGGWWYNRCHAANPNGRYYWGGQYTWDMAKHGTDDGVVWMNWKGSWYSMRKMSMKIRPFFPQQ
T1 sequence (P02679 27-437 isoform P02679-2 limits assumed): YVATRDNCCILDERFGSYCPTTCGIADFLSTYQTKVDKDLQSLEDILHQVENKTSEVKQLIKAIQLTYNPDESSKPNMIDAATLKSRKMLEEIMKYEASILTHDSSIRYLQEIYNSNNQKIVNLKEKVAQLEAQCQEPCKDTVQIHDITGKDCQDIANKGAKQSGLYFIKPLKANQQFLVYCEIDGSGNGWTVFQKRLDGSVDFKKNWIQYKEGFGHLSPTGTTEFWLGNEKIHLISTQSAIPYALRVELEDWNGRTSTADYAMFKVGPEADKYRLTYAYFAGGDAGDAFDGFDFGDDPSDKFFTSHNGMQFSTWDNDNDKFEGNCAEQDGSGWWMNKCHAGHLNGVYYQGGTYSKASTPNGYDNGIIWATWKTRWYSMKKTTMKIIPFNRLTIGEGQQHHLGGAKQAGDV
The conditions noted are these: SOFIA-tPA assay; read-out: KD of tPA-fibrin binding reported by Angles-Cano (1986); cited from earlier work.

As to “tPA: Recombinant tissue-plasminogen activator (Activase®, Genentech Inc.), used as the thrombolytic agent [reference compound]”, the “effect of ultrasound exposure on thrombolysis” value in assay [1] is “no significant augmentation of thrombolysis”. Moreover, in assay [2], the Kd is 1.4 ± 2 nM.

Usually Kd stands for the concentration at which binding is half-saturated.
